Experimental data taken from a melting point compilation (Tetko et al.; mined from patent text by program, amines drawn as free bases though some values may be those of a salt).

| SMILES | melting point [°C] |
| --- | --- |
| Cc1cc(Cl)cc(C(=O)N(Cc2ccccc2)C2(C)CNC2)c1NC(=O)c1cc(C(F)(F)F)nn1-c1ncccc1Cl | 127 to 130 |
| COc1cc(OCCOCc2ccccc2)cc2nc(-c3cc(C)nc(C)c3)[nH]c(=O)c12 | 178 to 180 |
| CSc1ccc(-c2[nH]c3cccc4c3c2CCNC4=O)cc1 | 250 to 251 |
| CCOC(=O)c1cc(C)c(OCCCc2cc(C)no2)c(C)c1 | 49 to 50 |
| CC(C)(C)OC(=O)NNC(=O)c1ccc2ncsc2c1 | 128 to 129 |
| CN(C)C(=S)C(O)c1ccc(OCc2ccccc2)cc1 (stereo not drawn) | 104 to 107 |
| Nc1nc(N)c2ncn(/C=C3/CC3(CO)CO)c2n1 | 219 to 220 |
| CC(=O)NCC1CN(c2ccc3c(c2)CC(CO)N3C=O)C(=O)O1 (stereo not drawn) | 132 to 136 |
| CCC1(CC)c2ccccc2C(CC)(CC)N1OC(C)(C)C#N | 63 to 64 |
| O=C(OCc1ccccc1)[C@@H]1COC(c2ccccc2OCc2ccccc2)=N1 | 69 to 71 |
| O=c1cc(O)c2cccc([N+](=O)[O-])c2o1 | 242 to 245 |
| CCSc1cccc(C)c1S(=O)(=O)NC(C)(C)C | 94 |
| CCCCCCCNC(=O)Oc1ccc2ncccc2c1 | 78 |
| CC1=C(c2ccnc3ccccc23)SCC(=O)N1 | 174 to 176 |
| Cc1noc(-c2ccc(-c3cscn3)cc2)c1-c1ccc(S(N)(=O)=O)cc1 | 236 |
| Cc1ccc(S(=O)(=O)N2CCCC2c2ccncc2)cc1 (racemic) | 158 |
| C=Cc1[nH]c2cccc3c2c1CC1C3CC(NC(=O)N(CC)CC)CN1C (stereo not drawn) | 145 to 150 |
| COc1ccc(-c2nc(NC(=O)c3cccnc3)sc2-c2ccnc(NC(=O)c3cccnc3)c2)cc1 | 229 to 232 |
| Cc1noc(NS(=O)(=O)c2ccccc2-c2ccc(-c3ncco3)cc2Cc2ncco2)c1C | 88 to 95 |
| CSc1cc(C)nc(SC)c1NC(=O)CN1CCN(CCO)CC1 | 119 to 120 |
| CCOC(=O)COc1c(-c2ccccc2)cc(O)cc1-c1ccccc1 | 91 to 93 |
| Nc1nc(-c2ccc3ncccc3c2)c(-c2ccccn2)s1 | 226 |
| C=C(C)C(=O)N(NC(=O)c1ccccc1)C(C)(C)C | 148 to 152 |
| O=C(NC1N=C(c2ccc(F)cc2)c2ccccc2NC1=O)OCc1ccccc1 (stereo not drawn) | > 260 |
| CCn1c(C)c(C2(c3ccc(N(C)C)cc3N(C)C)OC(=O)c3ccccc32)c2ccccc21 (stereo not drawn) | 218 to 222 |

The next lines start with the values.

| melting point [°C] | SMILES |
| --- | --- |
| 98 to 100 | C[Si](C)(C)CCC1=C(O)C(=O)c2ccccc2C1=O |
| 139 to 141 | Cc1c(F)c(=O)n(-c2cc(OC(C)C)c(Cl)cc2F)c(=O)n1C |
| 164 to 168 | CCCCc1nc(Cl)c(CO)n1Cc1ccc2oc(-c3ccccc3C#N)c(OC)c2c1 |
| 205 to 207 | Cc1nc2c(N)nc3cc(OCCC4CCN(C(=O)C(C)C)CC4)ccc3c2n1CC(C)C |
| 152 to 154 | CCCN1CCN(c2cc3ccccc3c(=O)[nH]2)CC1CO (stereo not drawn) |
| 127 to 129 | CN1C(=O)N(c2ccc(Cl)cc2)S(=O)(=O)c2ccc(OCC3CCCCC3)cc21 |
| 61 to 65 | CC(C)(C)OC(=O)NCCc1cccc(OCCC2Oc3ccccc3N(Cc3ccccc3Cl)C2=O)c1 (stereo not drawn) |
| > 300 | Nc1ncc2c(n1)N(c1ccccc1)C(=O)N(c1c(Cl)cccc1Cl)C2 |
| 171 | O=C(O)CNC(=O)c1cn2nc(NCCCN3CCC(OC(c4ccccc4)c4ccccc4)CC3)ccc2n1 |
| 142 to 145 | COC(=O)C1=C(CCc2cccs2)NC(CC(=O)N2CCN(C)CC2)=C(C(=O)OC)C1c1c(Cl)cccc1Cl (stereo not drawn) |
| 55 to 61 | O=C(N[C@@H](CO)C(=O)NCCCCOC1CCCCC1)c1ccc(C(=O)c2cccnc2)cc1 |
| 145 to 147 | CC(C)(C)CC(=O)NCc1cccc2c1C(=O)N(C1CCC(=O)NC1=O)C2=O (stereo not drawn) |
| > 285 | COc1ccc(/C=C/c2nc3cc(C(=O)O)ccc3[nH]2)cc1OC |
